Drawing on patent publication US9469615B2, “Quinoxalines and AZA-quinoxalines as CRTH2 receptor modulators” (Merck Sharp & Dohme Corp., priority 2010, dated 2016), this text covers Ki for 32 compounds.

In the test the target is T1, hCRTH2 (Homo sapiens, UniProt Q9Y5Y4).
T1 construct: expressed in transfected cells; host or cells: HEK (human embryonic kidney) cells expressing hCRTH2; membrane preparation
T1 sequence (Q9Y5Y4 1-395): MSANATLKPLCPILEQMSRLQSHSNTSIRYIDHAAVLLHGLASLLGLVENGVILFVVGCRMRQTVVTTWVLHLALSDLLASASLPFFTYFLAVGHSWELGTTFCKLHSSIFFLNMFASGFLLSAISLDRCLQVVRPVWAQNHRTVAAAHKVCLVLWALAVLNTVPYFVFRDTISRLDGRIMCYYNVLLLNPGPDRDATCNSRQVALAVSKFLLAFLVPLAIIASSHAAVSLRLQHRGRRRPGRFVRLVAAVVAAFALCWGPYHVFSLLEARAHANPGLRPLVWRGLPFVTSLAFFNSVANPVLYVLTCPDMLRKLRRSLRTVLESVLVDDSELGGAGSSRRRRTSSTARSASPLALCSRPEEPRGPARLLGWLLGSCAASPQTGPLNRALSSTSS
As to the kind of experiment: Radioligand binding assay ([3H]PGD2 competition, HEK-hCRTH2 membranes). In a few lines: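 Using membranes of an HEK line stably carrying hCRTH2, ligands were tested against [3H]PGD2 (3.0 nM) in pH 7.4 Tris buffer containing 2 mM MnCl2 and 1 mM EDTA. After one hour at room temperature, filters were washed cold and counted.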

Where [1] appears, read: [3H]PGD2 binding, rated A-E (Table A).

The structures appear in SMILES notation.

Where the note is “[3H]PGD2 competition, Table B”, `O=C(O)CCCCc1nc2cc(C(=O)N[C@@H]3CCOc4cc(Cl)ccc43)ccc2nc1-c1ccc(Cl)cc1` [compound 334, (R)-5-(7-((7-chlorochroman-4-yl)carbamoyl)-3-(4-chlorophenyl)quinoxalin-2-yl)pentanoic acid] came in with an inhibition constant Ki of 2.1 to 20 nM.

`O=C(O)CCCCc1nc2cc(C(=O)N3CC[C@@H](c4ccccc4)C3)ccc2nc1-c1ccc(Cl)cc1` [16M, 3-(4-chlorophenyl)-7-[(3(S)-phenyl-1-pyrrolidinyl)carbonyl]-2-quinoxalinepentanoic acid]: under setting [1], the Ki lay within 0.1 to 2 nM.

In turn, `O=C(O)CCCCc1nc2cc(C(=O)N[C@H]3CCCc4cc(F)ccc43)ccc2nc1-c1ccc(Cl)cc1` [compound 185, 3-(4-chlorophenyl)-7-[[(6-fluoro-1,2,3,4-tetrahydro-1(S)-naphthalenyl)amino]carbonyl]2-quinoxalinepentanoic acid] returned a Ki under setting [1] of 2.1 to 20 nM. The compound `O=C(O)CCCCc1nc2cc(C(=O)NC3CC(=O)Nc4ccc(F)cc43)ccc2nc1-c1ccccc1` (centres unmarked) [compound 284, 5-(7-((6-fluoro-2-oxo-1,2,3,4-tetrahydroquinolin-4-yl)carbamoyl)-3-phenylquinoxalin-2-yl)pentanoic acid] came in with a Ki ([3H]PGD2 competition, Table B) of 2.1 to 20 nM. In turn, `O=C(N[C@H]1CCOc2ccccc21)c1ccc2nc(-c3ccc(F)cc3)c(CCCC(F)(F)C(=O)O)nc2c1` [compound 548, (S)-5-(7-(chroman-4-ylcarbamoyl)-3-(4-fluorophenyl)quinoxalin-2-yl)-2,2-difluoro-pentanoic acid] displayed an inhibitory constant (Ki) ([3H]PGD2 competition, Table B) of 201 to 700 nM. `O=C(O)CCCCc1nc2cc(C(=O)NCc3cccc(Cl)c3)ccc2nc1-c1ccc(C(F)(F)F)cc1` [compound 151, 7-[[[(3-chlorophenyl)methyl]amino]carbonly]-3-[4-(trifluoromethyl)phenyl]-2-quinoxalinepentanoic acid] displayed a Ki under setting [1] of 0.1 to 2 nM. Under setting [1], `O=C(N[C@@H]1CCCc2ccccc21)c1ccc2nc(-c3ccccc3)c(CCCC(F)C(=O)O)nc2c1` (single isomer, unassigned) [38A] had an inhibition constant (Ki) of 20.1 to 200 nM. The compound `O=C(O)CCCCc1nc2cc(C(=O)N[C@H]3CCCc4cc(Cl)ccc43)ccc2nc1-c1ccccc1` [compound 387, (S)-5-(7-((6-chloro-1,2,3,4-tetrahydronaphthalen-1-yl)carbamoyl)-3-phenylquinoxalin-2-yl)pentanoic acid] displayed an inhibition constant Ki ([3H]PGD2 competition, Table B) of 2.1 to 20 nM. `O=C(O)CCCCc1nc2cc(C(=O)N3CCC(c4cccc(Cl)c4)C3)ccc2nc1-c1ccccc1` (centres unmarked) [15P, 5-(7-{[3-(3-chloro-phenyl)pyrrolidin-1-yl]-carbonyl}-3-phenyl-quinoxalin-2-yl) pentanoic acid] came in with an inhibition constant (Ki) under setting [1] of 0.1 to 2 nM. In turn, `N#Cc1ccc(CNC(=O)c2ccc3nc(-c4ccc(Cl)cc4)c(CCc4cc(F)cc(CC(=O)O)c4)nc3c2)cc1` [compound 451, 2-(3-(2-(3-(4-chlorophenyl)-7-((4-cyanobenzyl)carbamoyl)quinoxalin-2-yl)ethyl)-5-fluorophenyl)acetio acid] came in with a Ki ([3H]PGD2 competition, Table B) of 2.1 to 20 nM. Compound `CC(CCc1nc2cc(C(=O)N[C@@H](C)c3ccc(Cl)cc3)ccc2nc1-c1ccc(Cl)cc1)CC(=O)O` (some centres unmarked) [17D] came in with an inhibitory constant (Ki) under setting [1] of 0.1 to 2 nM. The same measure, in the same setting: next, `CC(NC(=O)c1ccc2nc(-c3ccc(C(F)(F)F)cc3)c(CCCCC(=O)O)nc2c1)c1ccc(-c2ccccc2)cc1` (single isomer, unassigned) [4F, 7-[[(1-[1,1′-biphenyl]-4-ylethyl)amino]carbonyl]-3-[4-(trifluoromethyl)-phenyl]-2-quinoxaline-pentanoic acid]: 2.1 to 20 nM; `CC(CCc1nc2cc(C(=O)N3CCC[C@@H](c4ccccc4)C3)ccc2nc1-c1ccc(Cl)cc1)CC(=O)O` (stereo partly drawn) [17i, 3-(4-chlorophenyl)-beta-methyl-7-[(3(S)-phenyl-1-piperidinyl)carbonyl]-2-quinoxalinepentanoic acid]: 2.1 to 20 nM; `O=C(O)CCCCc1nc2cc(C(=O)NC3(c4ccccc4)CC3)cnc2nc1-c1ccccc1` [14E, 5-{3-phenyl-7-[(1-phenylcyclopropyl)carbamoyl]-pyrido[2,3-b]pyrazin-2-yl}pentanoic acid]: 20.1 to 200 nM. The compound `O=C(O)CCCCc1nc2cc(C(=O)N[C@H]3COc4ccccc43)ccc2nc1-c1ccc(Cl)cc1` [compound 562, (R)-5-(3-(4-chlorophenyl)-7-((2,3-dihydrobenzofuran-3-yl)carbamoyl)quinoxalin-2-yl)pentanoic acid] gave an inhibition constant Ki ([3H]PGD2 competition, Table B) of 0.1 to 2 nM. The same measure, in the same setting: next, `O=C(N[C@@H]1CCCc2ccccc21)c1ccc2nc(-c3ccccc3)c(CCCC(O)C(=O)O)nc2c1` (stereo partly drawn) [compound 706, 2-hydroxy-5-(3-phenyl-7-(((R)-1,2,3,4-tetrahydronaphthalen-1-yl)carbamoyl)quinoxalin-2-yl)pentanoic acid]: 201 to 700 nM; `O=C(N[C@@H]1CCCc2cc(Cl)ccc21)c1ccc2nc(-c3ccccc3)c(CCCC(F)(F)C(=O)O)nc2c1` [compound 467, (R)-5-(7-((6-chloro-1,2,3,4-tetrahydronaphthalen-1-yl)carbamoyl)-3-phenylquinoxalin-2-yl)-2,2-difluoropentanoic acid]: 2.1 to 20 nM. The compound `O=C(N[C@@H]1CCCc2ccccc21)c1ccc2nc(-c3ccc(F)cc3)c(CC[C@@H]3C[C@H]3C(=O)O)nc2c1` [compound 500, (1R,2R)-2-(2-(3-(4-fluorophenyl)-7-(((R)-1,2,3,4-tetrahydronaphthalen-1-yl)carbamoyl)quinoxalin-2-yl)ethyl)cyclopropane-carboxylic acid] came in with an inhibition constant Ki ([3H]PGD2 competition, Table B) of 2.1 to 20 nM. The compound `O=C(O)CCCCc1nc2cc(C(=O)N3CCCC(c4ccccc4)C3)ccc2nc1-c1ccc(Cl)cc1` (centres unmarked) [compound 176, 3-(4-chlorophenyl)-7-[(3-phenyl-1-piperidinyl)carbonyl]-2-quinoxalinepentanoic acid] registered a Ki under setting [1] of 2.1 to 20 nM.

Turning to `O=C(O)Cc1cccc(CCCc2nc3cc(C(=O)NCc4ccc(Cl)cc4)ccc3nc2-c2ccc(Cl)cc2)c1` [compound 546, 2-(3-(3-(7-((4-chlorobenzyl)carbamoyl)-3-(4-chlorophenyl)quinoxalin-2-yl)propyl)phenyl) acetic acid], the inhibition constant (Ki) ([3H]PGD2 competition, Table B) lay within 20.1 to 200 nM. In the case of `N#Cc1ccc(CNC(=O)c2ccc3nc(-c4ccc(C(F)(F)F)cc4)c(CCCCC(=O)O)nc3c2)cc1` [compound 157, 7-[[[(4-cyanophenyl)methyl]amino]carbonyl]-3-[4-(trifluoromethyl)phenyl]-2-quinoxalinepentanoic acid], under setting [1], the Ki was in the range of 2.1 to 20 nM.

Compound `CC(C)C(=O)c1ccc2nc(-c3ccc(F)cc3)c(CCCCC(=O)O)nc2c1` [7C, 3-(4-fluorophenyl)-7-(2-methyl-1-oxopropyl)-2-quinoxalinepentanoic acid] came in with an inhibition constant Ki under setting [1] of 0.1 to 2 nM. The same measure, in the same setting: the value for `O=C(O)CCCCc1nc2cc(C(=O)C3CC3)ccc2nc1-c1ccc(F)cc1` [compound 5, 5-(7-(cyclopropanecarbonyl)-3-(4-fluorophenyl)quinoxalin-2-yl)pentanoic acid] was 0.1 to 2 nM. On to `O=C(O)CCCCc1nc2cc(C(=O)N[C@@H]3CCOc4ccccc43)ccc2nc1-c1ccccc1` [compound 512, (R)-5-(7-(chroman-4-ylcarbamoyl)-3-phenylquinoxalin-2-yl)pentanoic acid], for which, where the note is “[3H]PGD2 competition, Table B”, the inhibition constant (Ki) fell in the range of 0.1 to 2 nM. `O=C(O)CCCCc1nc2cc(C(=O)N3CCC(c4ncccn4)CC3)ccc2nc1-c1ccccc1` [compound 245, 3-phenyl-7-[[4-(2-pyrimidinyl)-1-piperidinyl]carbonyl]-2-quinoxalinepentanoic acid] came in with a Ki under setting [1] of 2.1 to 20 nM. As for `O=C(O)CCCCc1nc2cc(C(=O)N3CCc4cc(F)ccc4C3)ccc2nc1-c1ccc(Cl)cc1` [compound 557, 5-(3-(4-chlorophenyl)-7-(6-fluoro-1,2,3,4-tetrahydroisoquinoline-2-carbonyl)quinoxalin-2-yl)pentanoic acid], where the note is “[3H]PGD2 competition, Table B”, the inhibition constant Ki lay within 2.1 to 20 nM.

Under setting [1], `O=C(O)CCCCc1nc2cc(C(=O)NCCCN3CCCC3=O)ccc2nc1-c1ccccc1` [15BN, 5-(7-{[3-(2-oxopyrrolidin-1-yl)propyl]carbamoyl}-3-phenylquinoxalin-2-yl)pentanoic acid] displayed a Ki of 2.1 to 20 nM. `O=C(O)CCCCc1nc2cc(C(=O)N3CCN(c4ccccc4C(F)(F)F)CC3)ccc2nc1-c1ccccc1` [compound 305, 5-(3-phenyl-7-(4-(2-(trifluoromethyl)phenyl)piperazine-1-carbonyl)quinoxalin-2-yl)pentanoic acid] gave a Ki ([3H]PGD2 competition, Table B) of 2.1 to 20 nM. Under setting [1], `O=C(O)CCCCc1nc2cc(C(=O)N3CCC(c4ccccc4)CC3)ccc2nc1-c1ccc(C(F)(F)F)cc1Cl` [26AA, 3-[2-chloro-4-(trifluoromethyl)phenyl]-7-[(4-phenyl-1-piperidinyl)carbonyl]-2-quinoxalinepentanoic acid] had a Ki of 0.1 to 2 nM. The same measure, in the same setting: the value for `O=C(O)CCCCc1nc2cc(C(=O)N3CCC(c4ccccc4)C3)ccc2nc1-c1cccc(F)c1` (centres unmarked) [26E, 3-(3-fluorophenyl)-7-[(3-phenyl-1-pyrrolidinyl)carbonyl]-2-quinoxalinepentanoic acid] was 2.1 to 20 nM. For `C[C@@H](NC(=O)c1ccc2nc(-c3ccc(Cl)cc3)c(CC3CCC(C(=O)O)C3)nc2c1)c1ccccc1` (stereo partly drawn) [compound 394, 3-((3-(4-chlorophenyl)-7-(((R)-1-phenylethyl)carbamoyl)quinoxalin-2-yl)methyl)cyclopentane-carboxylic acid], the Ki ([3H]PGD2 competition, Table B) fell in the range of 2.1 to 20 nM. Same read-out and setting: the value for `O=C(O)CCCCc1nc2cc(C(=O)N[C@H]3CCCc4ncccc43)ccc2nc1-c1ccccc1` [compound 504, (S)-5-(3-phenyl-7-((5,6,7,8-tetrahydroquinolin-5-yl)carbamoyl)quinoxalin-2-yl)pentanoic acid] was 2.1 to 20 nM.
